This is an account of results in patent US10689327B2, “Prodrug amino acid derivative” (TAISHO PHARMACEUTICALS CO., LTD., priority 2016, dated 2020).

Broadly, the IC50 is the point on the concentration scale where inhibition reaches its midpoint. A lower IC50 goes with inhibition by little substance.

Series [1] deals with human metabotropic glutamate receptor mGluR3 (Homo sapiens (Human), UniProt Q14832). Briefly: [35S]GTPγS binding test, mGluR3. The class given is biochemical. To be noted: inhibition of glutamate (1 μM)-stimulated [35S]GTPγS specific binding, CHO cell membranes. The protocol:
(§1) Test 1 [^35S]GTPγS binding test
(§2) CHO cells stably expressing human metabotropic glutamate receptors mGluR2 and mGluR3 were cultured at 37° C. under 5% CO2 using a Dulbecco's modified Eagle medium [1% proline, 1 mM sodium pyruvate, 1 mM succinic acid, 1 mM disodium succinate, 100 units/mL penicillin, 100 μg/mL streptomycin, 400 (mGluR2) or 300 (mGluR3) μg/mL hygromycin B, 2 mM L-glutamine (added just before use)] containing 10% dialyzed fetal bovine serum. The cells in a confluent state were washed with PBS(−), then dissociated using a cell scraper, and centrifuged at 1000 rpm for 5 minutes at 4° C. to recover the cells. The obtained pellet was suspended in a 20 mM HEPES buffer (pH 7.4) (mGluR2) or 20 mM HEPES buffer containing 1 mM EDTA (pH 7.4) (mGluR3), and the suspension was homogenized in a Teflon® homogenizer and then centrifuged at 48,000×g for 20 minutes at 4° C. to obtain a pellet again. The obtained pellet was subjected to two additional cycles of washing and centrifugation and then homogenized with the buffer described above to obtain a crude membrane fraction. The crude membrane fraction was diluted with a buffer for a binding test (final concentration: 20 mM HEPES, 100 mM NaCl, 10 mM MgCl2, 10 μM GDP, […], 0.1% BSA) (mGluR2) or (final concentration: 20 mM HEPES, 1 mM EDTA, 100 mM NaCl, 10 mM MgCl2, 10 μM GDP, 10 μg/mL saponin, 0.1% BSA) (mGluR3). To the crude membrane fraction containing 10 μg of membrane proteins/assay, Compounds (II)-1 to (II)-15 were each added, and the mixture was incubated at 30° C. for 20 minutes. Then, glutamate (final concentration: 20 (mGluR2) or 1 (mGluR3) μM) and [^35S]GTPγS (final concentration: 0.15 nM) were added thereto, and the mixture was incubated at 30° C. for 1 hour. The solution thus incubated was filtered by suction onto Whatman GF/C filter, and the filter was washed with 1000 μL of an ice-cooled 20 mM HEPES buffer (pH 7.4) (mGluR2) or 20 mM HEPES buffer containing 1 mM EDTA (pH 7.4) (mGluR3). A scintillation cocktail was added to the obtained filter, and the membrane binding radioactivity was measured using a liquid scintillation counter. The residual radioactivity in the absence of glutamate was defined as nonspecific binding, and the difference from the residual radioactivity in the presence of glutamate was defined as specific binding. From the percent inhibition of specific binding at varying concentrations of Compounds (II)-1 to (II)-15, an inhibition curve was obtained using nonlinear analysis. The concentrations at which Compounds (II)-1 to (II)-15 inhibited 50% of specific binding (IC50) were calculated from the inhibition curve.

Series [2] concerns the target human metabotropic glutamate receptor mGluR2 (Homo sapiens (Human), UniProt Q14416). Briefly: [35S]GTPγS binding test, mGluR2. The class given is biochemical. To be noted: inhibition of glutamate (20 μM)-stimulated [35S]GTPγS specific binding, CHO cell membranes. The protocol:
as §1, §2

Another series addresses mGlu2 receptor (Homo sapiens (Human), UniProt Q14416). The note with it: reported in literature; cited from earlier work.
Series [3] can be described thus: Stability test in solution (pH 1.2 and pH 6.5). The class given is physicochemical. The note with it: 1 hour; for Compound's percent residue (%) pH 6.5: 20 mM phosphate buffer pH 6.5, 37° C.; for Compound's percent residue (%) pH 1.2: hydrochloric acid solution pH 1.2, 37° C. How it is done:
Test 2: Stability Test in Solution
A test to determine the stability of Inventive Compounds (I-A) or (I) in a hydrochloric acid solution (pH 1.2) and 20 mM phosphate buffer (pH 6.5) was conducted in accordance with the following method.
A compound was dissolved in a hydrochloric acid solution (pH 1.2) containing hydrochloric acid and sodium chloride or a 20 mM phosphate buffer (pH 6.5) containing disodium hydrogenphosphate, sodium dihydrogenphosphate and sodium chloride to prepare a solution with a concentration of about 50 ng/mL (near the saturated concentration when the compound was not dissolved). The solution was incubated at 37° C. for 1 hour and the compound's concentration before and after the incubation was quantified by high-performance liquid chromatography to calculate the percent residue of the compound. Compounds having low solubility were assessed as being not applicable.
The percent residues of representative compounds in the hydrochloric acid solution (pH 1.2) and the 20 mM phosphate buffer (pH 6.5) are shown in the following Table 2.

Chain of human metabotropic glutamate receptor mGluR3 (Q14832 23-879): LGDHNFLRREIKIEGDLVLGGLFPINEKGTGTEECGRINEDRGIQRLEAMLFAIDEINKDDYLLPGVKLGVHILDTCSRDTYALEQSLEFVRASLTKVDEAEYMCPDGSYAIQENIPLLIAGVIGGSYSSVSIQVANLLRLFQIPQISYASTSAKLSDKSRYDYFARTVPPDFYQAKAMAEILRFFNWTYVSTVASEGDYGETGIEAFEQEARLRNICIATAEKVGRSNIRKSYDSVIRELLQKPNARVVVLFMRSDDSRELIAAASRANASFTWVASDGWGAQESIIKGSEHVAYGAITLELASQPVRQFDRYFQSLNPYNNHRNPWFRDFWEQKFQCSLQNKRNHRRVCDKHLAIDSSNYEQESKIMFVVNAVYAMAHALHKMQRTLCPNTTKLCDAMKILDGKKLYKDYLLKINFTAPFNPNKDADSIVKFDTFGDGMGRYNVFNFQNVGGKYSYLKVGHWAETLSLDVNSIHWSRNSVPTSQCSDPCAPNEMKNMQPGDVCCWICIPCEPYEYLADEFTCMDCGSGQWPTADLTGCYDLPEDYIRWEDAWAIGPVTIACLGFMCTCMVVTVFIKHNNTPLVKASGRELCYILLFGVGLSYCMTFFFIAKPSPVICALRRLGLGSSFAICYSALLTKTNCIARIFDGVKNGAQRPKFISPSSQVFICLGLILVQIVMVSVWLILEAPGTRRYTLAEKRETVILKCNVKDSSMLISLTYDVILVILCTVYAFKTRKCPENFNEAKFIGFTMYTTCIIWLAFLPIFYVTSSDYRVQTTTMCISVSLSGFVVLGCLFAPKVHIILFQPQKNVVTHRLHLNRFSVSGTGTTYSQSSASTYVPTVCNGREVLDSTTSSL
Chain of human metabotropic glutamate receptor mGluR2 (Q14416 19-872): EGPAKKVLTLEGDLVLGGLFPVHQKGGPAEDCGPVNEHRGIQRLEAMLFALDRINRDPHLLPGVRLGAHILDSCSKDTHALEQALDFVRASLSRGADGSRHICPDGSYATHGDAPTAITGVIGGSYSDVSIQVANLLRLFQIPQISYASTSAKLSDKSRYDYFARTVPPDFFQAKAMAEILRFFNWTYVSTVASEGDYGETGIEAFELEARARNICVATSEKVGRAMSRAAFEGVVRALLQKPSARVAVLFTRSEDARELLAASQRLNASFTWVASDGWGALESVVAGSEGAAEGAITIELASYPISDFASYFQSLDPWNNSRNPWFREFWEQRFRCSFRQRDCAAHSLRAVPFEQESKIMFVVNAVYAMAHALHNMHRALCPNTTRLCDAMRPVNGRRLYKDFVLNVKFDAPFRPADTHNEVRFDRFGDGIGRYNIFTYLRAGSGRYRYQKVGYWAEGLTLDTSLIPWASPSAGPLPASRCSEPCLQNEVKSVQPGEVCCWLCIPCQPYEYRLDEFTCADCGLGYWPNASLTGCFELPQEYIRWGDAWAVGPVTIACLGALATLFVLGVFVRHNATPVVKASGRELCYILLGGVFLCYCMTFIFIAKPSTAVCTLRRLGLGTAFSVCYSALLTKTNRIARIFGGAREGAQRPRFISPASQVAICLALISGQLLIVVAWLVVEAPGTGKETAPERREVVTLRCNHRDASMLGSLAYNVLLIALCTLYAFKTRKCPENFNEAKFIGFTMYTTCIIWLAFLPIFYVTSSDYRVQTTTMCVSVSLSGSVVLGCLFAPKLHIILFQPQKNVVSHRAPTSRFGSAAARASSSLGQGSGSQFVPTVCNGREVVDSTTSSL
Chain of mGlu2 receptor (Q14416 19-872): as above

In the case of `N[C@]1(C(=O)O)[C@H]2[C@@H](C[C@H]1OCc1ccc(Cl)nc1)[C@]2(F)C(=O)O` [Compound (II)-10, (1R,2R,3R,5R,6R)-2-amino-3-[(6-chloropyridin-3-yl)methoxy]-6-fluorobicyclo[3.1.0]hexane-2,6-dicarboxylic acid], the values for the IC50 in series [1] and in series [2] were 50.6 nM and 49.7 nM, respectively.
Take `Cc1ccc(CO[C@@H]2C[C@@H]3[C@H]([C@]2(N)C(=O)O)[C@@]3(F)C(=O)O)cc1` [Compound (II)-12, (1R,2R,3R,5R,6R)-2-amino-6-fluoro-3-[(4-methylphenyl)methoxy]bicyclo[3.1.0]hexane-2.6-dicarboxylic acid]: the values for the half-inhibitory concentration (IC50) in series [1] and in series [2] were 54.4 nM and 24.6 nM, respectively.
As to `CCCO[C@@H]1C[C@@H]2[C@H]([C@]1(N)C(=O)O)[C@@]2(F)C(=O)O` [Compound (II)-3, (1R,2R,3R,5R,6R)-2-amino-6-fluoro-3-propoxybicyclo[3.1.0]hexane-2,6-dicarboxylic acid], the “antagonistic activity (mGlu2 receptor)” value on mGlu2 receptor is given as not above 500 nM. The IC50 in series [1] turned out to be 321 nM; in series [2] it was 75.1 nM.
`CC(C)CCO[C@@H]1C[C@@H]2[C@H]([C@]1(N)C(=O)O)[C@@]2(F)C(=O)O` [Compound (II)-7, (1R,2R,3R,5R,6R)-2-amino-6-fluoro-3-(3-methylbutoxy)bicyclo[3.1.0]hexane-2,6-dicarboxylic acid]: the IC50 is 173 nM in series [1] and 98.8 nM in series [2].
As for `N[C@]1(C(=O)O)[C@H]2[C@@H](C[C@H]1OCc1ccc(F)cc1)[C@@H]2C(=O)O` [Compound (II)-15, (1S,2R,3R,5R,6S)-2-amino-3-[(4-fluorophenyl)methoxy]bicyclo[3.1.0]hexane-2,6-dicarboxylic acid], the IC50 in series [1] is 60.5 nM; in series [2], 32.7 nM.
For `N[C@]1(C(=O)O)[C@H]2[C@@H](C[C@H]1OCc1cccc(Cl)n1)[C@]2(F)C(=O)O` [Compound (II)-8, (1R,2R,3R,5R,6R)-2-amino-3-[(6-chloropyridin-2-yl)methoxy]-6-fluorobicyclo[3.0.1]hexane-2,6-dicarboxylic acid], the IC50 came to 32.3 nM in series [1] and 18.6 nM in series [2].
On the same counts, the results for `N[C@]1(C(=O)O)[C@H]2[C@@H](C[C@H]1OCc1ccc(F)c(F)c1)[C@@H]2C(=O)O` [Compound (II)-14, (1S,2R,3R,5R,6S)-2-amino-3-[(3,4-difluorophenyl)methoxy]bicyclo[3.1.0]hexane-2,6-dicarboxylic acid] are 15.2 nM and 30.1 nM.
Take `N[C@]1(C(=O)O)[C@H]2[C@@H](C[C@H]1OC1CCCC1)[C@]2(F)C(=O)O` [Compound (II)-9, (1R,2R,3R,5R,6R)-2-amino-3-(cyclopentyloxy)-6-fluorobicyclo[3.1.0]hexane-2,6-dicarboxylic acid]: the figures for the IC50 in series [1] and in series [2] were 97.6 nM and 62.2 nM, respectively.
Turning to `N[C@]1(C(=O)O)[C@H]2[C@@H](C[C@H]1OCc1cccc(F)c1)[C@]2(F)C(=O)O` [Compound (II)-6, (1R,2R,3R,5R,6R)-2-amino-6-fluoro-3-[(3-fluorophenyl)methoxy]bicyclo[3.1.0]hexane-2.6-dicarboxylic acid], the 50% inhibitory concentration (IC50) came to 75.5 nM in series [1] and 27.8 nM in series [2].
As to `COc1cc([C@@H](C)O[C@@H]2C[C@@H]3[C@H]([C@]2(N)C(=O)O)[C@@]3(F)C(=O)O)ccc1F` [Compound (II)-4, (1R,2R,3R,5R,6R)-2-amino-6-fluoro-3-[(1R)-1-(4-fluoro-3-methoxyphenyl)ethoxy]bicyclo[3.1.0]hexane-2,6-dicarboxylic acid], the figures for the IC50 in series [1] and in series [2] were 5.04 nM and 5.22 nM, respectively.
For `N[C@]1(C(=O)O)[C@H]2[C@@H](C[C@H]1OCc1ccc(C(F)(F)F)cc1)[C@]2(F)C(=O)O` [Compound (II)-5, (1R,2R,3R,5R,6R)-2-amino-6-fluoro-3-{[4-(triflouromethyl)phenyl]methoxy}bicyclo[3.1.0]hexane-2,6-dicarboxylic acid], the IC50 in series [1] worked out at 279 nM; in series [2], 23.7 nM.
As for `N[C@]1(C(=O)O)[C@H]2[C@@H](C[C@H]1OCc1cc[nH]c(=O)c1)[C@]2(F)C(=O)O` [Compound (II)-13, (1R,2R,3R,5R,6R)-2-amino-6-fluoro-3-[(2-oxo-1,2-dihycropyridin-4-yl)methoxy]bicyclo[3.1.0]hexane-2.6-dicarboxylic acid], the IC50 came out at 4.35 nM in series [1] and 37.3 nM in series [2].
Turning to `CCCO[C@@H]1C[C@@H]2[C@H]([C@]1(N)C(=O)OC(C)OC(=O)O[C@H]1C[C@@H](C)CC[C@@H]1C(C)C)[C@@]2(F)C(=O)O` (single isomer, unassigned) [Example 15-B], in series [3], the “Compound's percent residue (%) pH 6.5” value is 103% and the “Compound's percent residue (%) pH 1.2” value was 100%.
Regarding `N[C@]1(C(=O)O)[C@H]2[C@@H](C[C@H]1OCc1ccc(Cl)cn1)[C@]2(F)C(=O)O` [Compound (II)-11, (1R,2R,3R,5R,6R)-2-amino-3-[(5-chloropyridin-2-yl)methoxy]-6-fluorobicyclo[3.1.0]hexane-2,6-dicarboxylic acid], the values for the IC50 in series [1] and in series [2] were 12.4 nM and 28.4 nM, respectively.
Take `C[C@@H](OC(=O)C12CC3CC(CC(C3)C1)C2)OC(=O)[C@@]1(N)[C@H]2[C@@H](C[C@H]1OCc1cccc(F)c1)[C@]2(F)C(=O)O` [Example 23, (1R,2R,3R,5R,6R)-2-amino-6-fluoro-3-[(3-fluorophenyl)methoxy]-2-({(1S)-1-[(tricyclo[3.3.1.1^3,7]decane-1-carbonyl)oxy]ethoxy}carbonyl)bicyclo[3.1.0]hexane-6-carboxylic acid]: in series [3], the “Compound's percent residue (%) pH 6.5” value is listed as 100% and the “Compound's percent residue (%) pH 1.2” value is recorded as 101%.
As for `C[C@@H](OC(=O)C12CC3CC(CC(C3)C1)C2)OC(=O)[C@@]1(N)[C@H]2[C@@H](C[C@H]1OCc1ccc(C(F)(F)F)cc1)[C@]2(F)C(=O)O` [Example 22, (1R,2R,3R,5R,6R)-2-amino-6-fluoro-2-({(1S)-1-[(tricyclo[3.3.1.1^3,7]decane-1-carbonyl)oxy]ethoxy}carbonyl)-3-{[4-(trifluoromethyl)phenyl]methoxy}bicyclo[3.1.0]hexane-6-carboxylic acid], in series [3], the “Compound's percent residue (%) pH 6.5” value was found to be 94% and the “Compound's percent residue (%) pH 1.2” value worked out at 96%.
`CC(C)CCO[C@@H]1C[C@@H]2[C@H]([C@]1(N)C(=O)O[C@@H](C)OC(=O)C13CC4CC(CC(C4)C1)C3)[C@@]2(F)C(=O)O` [Example 29, (1R,2R,3R,5R,6R)-2-amino-6-fluoro-3-(3-methylbutoxy)-2-({(1S)-1-[(tricyclo[3.3.1.1^3,7]decane-1-carbonyl)oxy]ethoxy}carbonyl)bicyclo[3.1.0]nexane-6-carboxylic acid]: in series [3], the “Compound's percent residue (%) pH 6.5” value is 103% and the “Compound's percent residue (%) pH 1.2” value stood at 102%.
